Data from ChEMBL document CHEMBL3045901, “Aryldiones incorporating a [1,4,5]oxadiazepane ring. Part 2: chemistry and biology of the cereal herbicide pinoxaden” (Pest Manag Sci, 2011).
In brackets after ≈: the same amount, converted by molar mass.

Tests used:
Lolium perenne = assay: Herbicidal activity against Lolium perenne (perennial ryegrass) assessed as weed control at 30 g/ha under greenhouse measured after 21 days by post-emergence test; assay type: functional
Alopecurus myosuroides = assay: Herbicidal activity against Alopecurus myosuroides assessed as weed control at 30 g/ha under greenhouse measured after 21 days by post-emergence test; assay type: functional
Setaria faberi = assay: Herbicidal activity against Setaria faberi (Giant Foxtail) assessed as weed control at 30 g/ha under greenhouse measured after 21 days by post-emergence test; assay type: functional
Avena fatua = assay: Herbicidal activity against Avena fatua assessed as weed control at 30 g/ha under greenhouse measured after 21 days by post-emergence test; assay type: functional
Triticum aestivum = assay: Herbicidal activity against Triticum aestivum (wheat) assessed as weed control at 30 g/ha under greenhouse measured after 21 days by post-emergence test; assay type: functional
Hordeum vulgare = assay: Herbicidal activity against Hordeum vulgare (barley) assessed as weed control at 30 g/ha under greenhouse measured after 21 days by post-emergence test; assay type: functional
[1] = Lipophilicity, log P of the compound at pH5 at 20 degC; assay type: physicochemical; details: buffer, pH 5
[2] = Aqueous hydrolysis of the compound at pH 5 at 20 degC; assay type: physicochemical; details: aqueous solution, read-out: DT50 (converted)
[3] = Aqueous hydrolysis of the compound at pH 4 at 20 degC; assay type: physicochemical; details: aqueous solution, read-out: DT50 (converted)
[4] = Solubility in water at pH7 at 20 degC; assay type: physicochemical; details: pH 7
[5] = Dissociation constant, pKa of the compound; assay type: physicochemical
[6] = Lipophilicity, log P of the compound at pH7 at 20 degC; assay type: physicochemical; details: buffer, pH 7
[7] = Aqueous hydrolysis of the compound at pH 9 at 20 degC; assay type: physicochemical; details: aqueous solution, read-out: DT50 (converted)
[8] = Solubility in water at pH5 at 20 degC; assay type: physicochemical; details: pH 5
[9] = Aqueous hydrolysis of the compound at pH 7 at 20 degC; assay type: physicochemical; details: aqueous solution, read-out: DT50 (converted)

Row | SMILES | Activity (Lolium perenne) | Activity (Alopecurus myosuroides) | Activity (Setaria faberi) | Activity (Avena fatua) | Activity (Triticum aestivum) | Activity (Hordeum vulgare) | logD [1] | half-life [2] | half-life [3] | solubility [4] | pKa [5] | logD [6] | half-life [7] | solubility [8] | half-life [9]
1 | Cc1cc(C)c(C2C(=O)N3CCOCCN3C2=O)c(C)c1 | 80% | 10% | 50% | 60% | 0% | 0% | – | – | – | – | – | – | – | – | –
2 | COc1cc(C)cc(Br)c1C1C(=O)N2CCOCCN2C1=O | 100% | 20% | 60% | 60% | 10% | 20% | – | – | – | – | – | – | – | – | –
3 | CCc1cc(C)cc(CC)c1C1C(=O)N2CCOCN2C1=O (centres undefined) | 10% | 0% | 10% | 40% | 0% | 0% | – | – | – | – | – | – | – | – | –
4 | CCc1cc(C)cc(CC)c1C1C(=O)N2COC(C)CN2C1=O (centres undefined) | 60% | 40% | 90% | 100% | 10% | 20% | – | – | – | – | – | – | – | – | –
5 | CCc1cc(C)cc(CC)c1C1C(=O)N2COC(CC)CN2C1=O (centres undefined) | 100% | 90% | 90% | 100% | 60% | 20% | – | – | – | – | – | – | – | – | –
6 | CCc1cc(C)cc(CC)c1C1C(=O)N2CCC(O)CCN2C1=O | 90% | 100% | 90% | 100% | 80% | 40% | – | – | – | – | – | – | – | – | –
7 | CCc1cc(C)cc(CC)c1C1C(=O)N2CCC(C)(O)CCN2C1=O | 100% | 100% | 90% | 80% | 80% | 90% | – | – | – | – | – | – | – | – | –
8 | CCc1cc(C)cc(CC)c1C1C(=O)N2CCCOCN2C1=O (centres undefined) | 40% | 0% | 10% | 40% | 0% | 0% | – | – | – | – | – | – | – | – | –
9 | CCc1cc(C)cc(CC)c1C1C(=O)N2C(C)COCC(C)N2C1=O (centres undefined) | 40% | 60% | 80% | 50% | 0% | 0% | – | – | – | – | – | – | – | – | –
10 | CCc1cc(C)cc(CC)c1C1C(=O)N2CCOC(C)CN2C1=O (centres undefined) | 90% | 60% | 90% | 40% | 0% | 0% | – | – | – | – | – | – | – | – | –
11 | CCc1cc(C)cc(CC)c1C1C(=O)N2CCOC(CC)CN2C1=O (centres undefined) | 80% | 20% | 20% | 40% | 0% | 0% | – | – | – | – | – | – | – | – | –
12 | CCc1cc(C)cc(CC)c1C1C(=O)N2CC(C)OC(C)CN2C1=O (centres undefined) | 80% | 50% | 90% | 90% | 0% | 0% | – | – | – | – | – | – | – | – | –
13 | CCc1cc(C)cc(CC)c1C1C(=O)N2C[C@H]3CC[C@@H](CN2C1=O)O3 (some centres undefined) | 80% | 40% | 80% | 80% | 0% | 0% | – | – | – | – | – | – | – | – | –
14 | CCc1cc(C)cc(CC)c1C1C(=O)N2C[C@H]3COC[C@H]3CN2C1=O (some centres undefined) | 90% | 100% | 100% | 100% | 40% | 0% | – | – | – | – | – | – | – | – | –
15 | Cc1cc(Br)c(C2C(=O)N3CCOCCN3C2=O)c(Br)c1 | 10% | 0% | 10% | 40% | 0% | 0% | – | – | – | – | – | – | – | – | –
16 | Cc1cc(C)c(C2C(=O)N3CCOCCN3C2=O)c(Br)c1 | 90% | 0% | 40% | 40% | 0% | 0% | – | – | – | – | – | – | – | – | –
17 | CCc1cc(C)cc(C)c1C1C(=O)N2CCOCCN2C1=O | 60% | 60% | 60% | 80% | 20% | 40% | – | – | – | – | – | – | – | – | –
18 | CCCc1cc(C)cc(C)c1C1C(=O)N2CCOCCN2C1=O | 60% | 20% | 40% | 80% | 0% | 0% | – | – | – | – | – | – | – | – | –

Row | SMILES | Activity (Lolium perenne) | Activity (Alopecurus myosuroides) | Activity (Setaria faberi) | Activity (Avena fatua) | Activity (Triticum aestivum) | Activity (Hordeum vulgare) | logD [1] | half-life [2] | half-life [3] | solubility [4] | pKa [5] | logD [6] | half-life [7] | solubility [8] | half-life [9]
19 | Cc1cc(C)c(C2C(=O)N3CCOCCN3C2=O)c(C(C)C)c1 | 50% | 0% | 20% | 50% | 0% | 0% | – | – | – | – | – | – | – | – | –
20 | Cc1cc(C)c(C2C(=O)N3CCOCCN3C2=O)c(C2CC2)c1 | 50% | 0% | 60% | 90% | 0% | 0% | – | – | – | – | – | – | – | – | –
21 | C#Cc1cc(C)cc(C)c1C1C(=O)N2CCOCCN2C1=O | 90% | 80% | 100% | 100% | 50% | 40% | – | – | – | – | – | – | – | – | –
22 | CC#Cc1cc(C)cc(C)c1C1C(=O)N2CCOCCN2C1=O | 60% | 0% | 40% | 40% | 10% | 10% | – | – | – | – | – | – | – | – | –
23 | CCc1cc(C)c(C2C(=O)N3CCOCCN3C2=O)c(CC)c1 | 60% | 0% | 60% | 50% | 0% | 0% | – | – | – | – | – | – | – | – | –
24 | C#Cc1cc(C)c(C2C(=O)N3CCOCCN3C2=O)c(CC)c1 | 10% | 20% | 20% | 20% | 0% | 10% | – | – | – | – | – | – | – | – | –
25 | CCc1cccc(CC)c1C1C(=O)N2CCOCCN2C1=O | 0% | 0% | 90% | 0% | 0% | 0% | – | – | – | – | – | – | – | – | –
26 | CCc1cc(CC)c(C2C(=O)N3CCOCCN3C2=O)c(CC)c1 | 60% | 40% | 40% | 60% | 0% | 0% | – | – | – | – | – | – | – | – | –
27 | CCc1cc(I)cc(CC)c1C1C(=O)N2CCOCCN2C1=O | 0% | 0% | 0% | 0% | 0% | 0% | – | – | – | – | – | – | – | – | –
28 | CCc1cc(-c2ccccc2)cc(CC)c1C1C(=O)N2CCOCCN2C1=O | 80% | 90% | 80% | 90% | 80% | 80% | – | – | – | – | – | – | – | – | –
29 | CCCc1cc(C)cc(CCC)c1C1C(=O)N2CCOCCN2C1=O | 0% | 50% | 90% | 80% | 0% | 0% | – | – | – | – | – | – | – | – | –
30 | C#Cc1cc(C)cc(CC)c1C1C(=O)N2CCOCCN2C1=O | 100% | 100% | 100% | 100% | 50% | 50% | – | – | – | – | – | – | – | – | –
31 | C#Cc1cc(C)cc(C#C)c1C1C(=O)N2CCOCCN2C1=O | 80% | 80% | 90% | 90% | 20% | 20% | – | – | – | – | – | – | – | – | –
32 | CCc1cc(C)cc(OC)c1C1C(=O)N2CCOCCN2C1=O | 80% | 90% | 100% | 90% | 50% | 50% | – | – | – | – | – | – | – | – | –
33 | C#Cc1cc(C)cc(OC)c1C1C(=O)N2CCOCCN2C1=O | 100% | 20% | 90% | 0% | 0% | 0% | – | – | – | – | – | – | – | – | –
34 | CCc1cc(-c2ccccc2)cc(OC)c1C1C(=O)N2CCOCCN2C1=O | 90% | 80% | 90% | 100% | 90% | 90% | – | – | – | – | – | – | – | – | –
35 | CCc1cc(C)cc(CC)c1C1C(=O)N2CCOCCN2C1=O [PINOXADEN DIONE] | 90% | 100% | 90% | 100% | 10% | 0% | 0.62 | < 24 h | < 24 h | > 300000 µg/mL | 3.82 | -1.1 | < 24 h | 5200 µg/mL (≈ 16.4 mM) | < 24 h
